Reference: ChEMBL document CHEMBL1126665, “o-Chlorobenzenesulfonamidic derivatives of (aryloxy)propanolamines as beta-blocking/diuretic agents” (J Med Chem, 1993)
Several values for one entry are separate records, joined by “and”; a condition that tells them apart may be missing. Identical values can stand only once. Activity calls are given as the source filed them. No cut-off for these calls is given here.

Legend:
Rattus norvegicus [1] = assay: Saluretic activity was evaluated for K+ by flame photometry at 15 mg/kg perorally; type: functional; conditions: route oral
Rattus norvegicus [2] = assay: Diuretic activity given as urinary output of 30 mg/kg perorally administered compound in rats; type: functional, Urine; conditions: route oral
Rattus norvegicus [3] = assay: Saluretic activity was evaluated for Na+ by flame photometry at 8 mg/kg perorally; type: functional; conditions: route oral
Rattus norvegicus [4] = assay: Saluretic activity was evaluated for K+ by flame photometry at 30 mg/kg perorally; type: functional; conditions: route oral
Rattus norvegicus [5] = assay: Saluretic activity was evaluated for Na+ by flame photometry at 30 mg/kg perorally; type: functional; conditions: route oral
[6] = Ratio of saluretic activity for Na+ over saluretic activity of K+ in rats after peroral administration of 30 mg/kg of compound; type: functional; conditions: route oral
[7] = Ratio of saluretic activity for Na+ over saluretic activity of K+ in rats after peroral administration of 15 mg/kg of compound; type: functional; conditions: route oral
Rattus norvegicus [8] = assay: Saluretic activity was evaluated for Na+ by flame photometry at 15 mg/kg perorally; type: functional; conditions: route oral
Rattus norvegicus [9] = assay: Diuretic activity given as urinary output of 8 mg/kg perorally administered compound in rats; type: functional, Urine; conditions: route oral
[10] = target: T1, Adrenergic receptor beta (Rattus norvegicus) (UniProt P18090+P10608+P26255)
Description: beta-adrenoceptor blocking activity of the intravenously administered compound was evaluated by inhibition of isiprenaline-induced tachycardia in rats; NA indicates not active

[11] = Ratio of saluretic activity for Na+ over saluretic activity of K+ in rats after peroral administration of 8 mg/kg of compound; type: functional; conditions: route oral
Rattus norvegicus [12] = assay: Diuretic activity given as urinary output of 15 mg/kg perorally administered compound in rats; type: functional, Urine; conditions: route oral
Rattus norvegicus [13] = assay: Saluretic activity was evaluated for K+ by flame photometry at 8 mg/kg perorally; type: functional; conditions: route oral
[14] = target: Beta-1 adrenergic receptor (Homo sapiens, UniProt P08588)
[15] = target: T1, Adrenergic receptor beta (Rattus norvegicus); remark: listed apart in the source
Description: beta-adrenoceptor blocking activity of the perorally administered compound was evaluated by inhibition of isiprenaline-induced tachycardia in rats; NA indicates not active

[16] = target: Beta-1 adrenergic receptor (Meleagris gallopavo) (UniProt P07700); assay: Inhibition of [3H]dihydroalprenolol binding ([3H]-DHA) to beta-1-adrenoceptor from turkey erythrocyte membranes; Not active
[17] = Ratio of saluretic activity for Na+ over saluretic activity of K+ in rats after peroral administration of 50 mg/kg of compound; type: functional; conditions: route oral
Rattus norvegicus [18] = assay: Diuretic activity given as urinary output at 15 mg/kg perorally; type: functional, Urine; conditions: route oral
Rattus norvegicus [19] = assay: Diuretic activity given as urinary output of 50 mg/kg perorally administered compound in rats; type: functional, Urine; conditions: route oral
Rattus norvegicus [20] = assay: Saluretic activity was evaluated for K+ by flame photometry at 50 mg/kg perorally; type: functional; conditions: route oral
Rattus norvegicus [21] = assay: Saluretic activity was evaluated for Na+ by flame photometry at 50 mg/kg perorally; type: functional; conditions: route oral

Sequence of Beta-1 adrenergic receptor (P08588 whole entry): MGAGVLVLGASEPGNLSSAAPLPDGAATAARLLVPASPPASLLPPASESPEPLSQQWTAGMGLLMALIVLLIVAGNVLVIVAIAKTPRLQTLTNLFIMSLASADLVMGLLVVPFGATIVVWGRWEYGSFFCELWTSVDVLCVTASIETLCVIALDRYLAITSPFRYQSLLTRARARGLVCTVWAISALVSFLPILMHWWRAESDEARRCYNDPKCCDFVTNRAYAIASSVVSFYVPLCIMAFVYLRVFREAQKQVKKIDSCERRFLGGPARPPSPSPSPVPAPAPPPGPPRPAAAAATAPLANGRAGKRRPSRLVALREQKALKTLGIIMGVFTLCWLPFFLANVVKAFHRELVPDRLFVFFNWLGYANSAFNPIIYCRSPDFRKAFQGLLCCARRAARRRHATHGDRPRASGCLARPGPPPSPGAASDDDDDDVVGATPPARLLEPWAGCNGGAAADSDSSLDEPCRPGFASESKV
Sequence of Beta-1 adrenergic receptor (Meleagris gallopavo) (P07700 whole entry, looked up): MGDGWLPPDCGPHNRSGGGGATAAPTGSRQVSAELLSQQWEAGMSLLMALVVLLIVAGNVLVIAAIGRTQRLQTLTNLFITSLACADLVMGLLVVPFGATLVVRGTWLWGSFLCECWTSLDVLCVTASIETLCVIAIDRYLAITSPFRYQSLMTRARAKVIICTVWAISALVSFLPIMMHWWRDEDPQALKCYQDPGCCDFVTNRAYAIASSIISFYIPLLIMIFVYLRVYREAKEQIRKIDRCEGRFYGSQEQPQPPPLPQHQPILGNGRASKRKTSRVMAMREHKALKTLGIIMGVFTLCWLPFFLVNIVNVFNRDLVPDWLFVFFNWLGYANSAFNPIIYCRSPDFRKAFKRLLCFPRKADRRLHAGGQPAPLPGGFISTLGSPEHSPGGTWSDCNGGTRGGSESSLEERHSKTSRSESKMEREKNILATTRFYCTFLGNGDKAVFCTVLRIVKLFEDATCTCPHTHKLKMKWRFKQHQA

Structure (SMILES)	Ki [14]	Activity (Rattus norvegicus [1])	Urinary output (Rattus norvegicus [2])	Activity (Rattus norvegicus [3])	Activity (Rattus norvegicus [4])	Activity (Rattus norvegicus [5])	Ratio [6]	Ratio [7]	Activity (Rattus norvegicus [8])	Urinary output (Rattus norvegicus [9])	Ratio [11]	Urinary output (Rattus norvegicus [12])	Activity (Rattus norvegicus [13])	also measured
NS(=O)(=O)c1cc(NCCNCC(O)COc2cccc3ccccc23)ccc1Cl (stereo not given)		2 m equiv kg-1	3.5 mL	2.8 m equiv kg-1	2.6 m equiv kg-1	3.2 m equiv kg-1	1.2	1.5	3.1 m equiv kg-1	2.4 mL	1.7	3.2 mL	1.6 m equiv kg-1	ED50 [10]: inactive
NS(=O)(=O)c1cc(N2CCN(CC(O)COc3cccc4ccccc34)CC2)ccc1Cl (stereo not given)		1.4 m equiv kg-1	2.9 mL	2.4 m equiv kg-1	2 m equiv kg-1	3.2 m equiv kg-1	1.4	1.2	1.7 m equiv kg-1	1.9 mL	1.8	2.2 mL	1.3 m equiv kg-1	
NS(=O)(=O)c1cc(C(=O)NCCNCC(O)COc2cccc3ccccc23)ccc1Cl (stereo not given)		1.7 m equiv kg-1	2.9 mL	2.5 m equiv kg-1	1.4 m equiv kg-1	1.8 m equiv kg-1	1.2	1.8	3.1 m equiv kg-1	5.2 mL	2.1	4.8 mL	1.2 m equiv kg-1	
NS(=O)(=O)c1cc(N2CCN(CC(O)COc3cccc4c3SCC(=O)N4)CC2)ccc1Cl (stereo not given)		1.8 m equiv kg-1	3.5 mL	2.2 m equiv kg-1	2 m equiv kg-1	3 m equiv kg-1	1.5	1.6	2.9 m equiv kg-1	2.6 mL	1.3	3.1 mL	1.7 m equiv kg-1	ED50 [10]: inactive
NS(=O)(=O)c1cc2c(cc1Cl)NCNS2(=O)=O [HYDROCHLOROTHIAZIDE]		1.9 m equiv kg-1	7.3 mL	3.1 m equiv kg-1	2.3 m equiv kg-1	5.1 m equiv kg-1	2.2	2	3.9 m equiv kg-1	4 mL	1.7	5.9 mL	1.8 m equiv kg-1	
NS(=O)(=O)c1cc(S(=O)(=O)NCCNCC(O)COc2cccc3c2CCC(=O)N3)ccc1Cl (stereo not given)		1.2 m equiv kg-1		1.8 m equiv kg-1	1.5 m equiv kg-1	3.4 m equiv kg-1	2.3	1.9	2.3 m equiv kg-1	2.2 mL	2		0.9 m equiv kg-1	Urinary output (Rattus norvegicus [12]; 15 mg/kg): 3.1 mL and 4.6 mL
NS(=O)(=O)c1cc(C(=O)NCCNCC(O)COc2cccc3c2CCC(=O)N3)ccc1Cl (stereo not given)		1.5 m equiv kg-1	3.3 mL	2.6 m equiv kg-1	1.8 m equiv kg-1	2.9 m equiv kg-1	1.6	1.3	2 m equiv kg-1	2.8 mL	1.4	2.6 mL	1.8 m equiv kg-1	
NS(=O)(=O)c1cc(S(=O)(=O)NCCNCC(O)COc2cccc3ccccc23)ccc1Cl (stereo not given)														ED50 [10]: inactive; ED50 [15]: inactive
NS(=O)(=O)c1cc(C(=O)N2CCN(CC(O)COc3cccc4ccccc34)CC2)ccc1Cl (stereo not given)														Ki [16]: Not Active
NS(=O)(=O)c1cc(NCCNCC(O)COc2cccc3c2SCC(=O)N3)ccc1Cl (stereo not given)		1.3 m equiv kg-1	3.1 mL	2.1 m equiv kg-1	1.2 m equiv kg-1	2.2 m equiv kg-1	1.8	2	2.6 m equiv kg-1	2.6 mL	1.9	3.3 mL	1.1 m equiv kg-1	
NS(=O)(=O)c1cc(C(=O)NCCNCC(O)COc2cccc3c2SCC(=O)N3)ccc1Cl (stereo not given)		0.9 m equiv kg-1	2 mL	0.9 m equiv kg-1	1.1 m equiv kg-1	1.7 m equiv kg-1	1.5	1.2	1.1 m equiv kg-1	1.2 mL	1.1		0.8 m equiv kg-1	Ratio [17]: 2.1; Urinary output (Rattus norvegicus [18]): 1.7 mL; Urinary output (Rattus norvegicus [19]): 4.3 mL; Activity (Rattus norvegicus [20]): 1.5 m equiv kg-1; Activity (Rattus norvegicus [21]): 3.1 m equiv kg-1
NS(=O)(=O)c1cc(S(=O)(=O)NCCNCC(O)COc2cccc3c2SCC(=O)N3)ccc1Cl (stereo not given)		1.3 m equiv kg-1	5.7 mL	3.2 m equiv kg-1	2.4 m equiv kg-1	4.5 m equiv kg-1	1.9	2.3	3 m equiv kg-1	3.5 mL	2.5	3.7 mL	1.3 m equiv kg-1	

Second part, led by results:

Ki [14]	Structure (SMILES)	Activity (Rattus norvegicus [1])	Urinary output (Rattus norvegicus [2])	Activity (Rattus norvegicus [3])	Activity (Rattus norvegicus [4])	Activity (Rattus norvegicus [5])	Ratio [6]	Ratio [7]	Activity (Rattus norvegicus [8])	Urinary output (Rattus norvegicus [9])	Ratio [11]	Urinary output (Rattus norvegicus [12])	Activity (Rattus norvegicus [13])	also measured
Not Active	NS(=O)(=O)c1cc(S(=O)(=O)N2CCN(CC(O)COc3cccc4ccccc34)CC2)ccc1Cl (stereo not given)													
Not Active	NS(=O)(=O)c1cc(S(=O)(=O)N2CCN(CC(O)COc3cccc4c3SCC(=O)N4)CC2)ccc1Cl (stereo not given)													
Not Active	NS(=O)(=O)c1cc(C(=O)N2CCN(CC(O)COc3cccc4c3SCC(=O)N4)CC2)ccc1Cl (stereo not given)													
Not Active	NS(=O)(=O)c1cc(N2CCN(CC(O)COc3cccc4c3CCC(=O)N4)CC2)ccc1Cl (stereo not given)													
Not Active	NS(=O)(=O)c1cc(C(=O)N2CCN(CC(O)COc3cccc4c3CCC(=O)N4)CC2)ccc1Cl (stereo not given)													
Not Active	NS(=O)(=O)c1cc(NCCNCC(O)COc2cccc3c2CCC(=O)N3)ccc1Cl (stereo not given)													
Not Active	NS(=O)(=O)c1cc(S(=O)(=O)N2CCN(CC(O)COc3cccc4c3CCC(=O)N4)CC2)ccc1Cl (stereo not given)													
